Measured values published in ChEMBL document CHEMBL1772985, “N-(3-fluoro-4-(4-(2-methoxy or 2,3-dichlorophenyl)piperazine-1-yl)butyl)arylcarboxamides as selective dopamine D3 receptor ligands: critical role of the carboxamide linker for D3 receptor selectivity” (J Med Chem, 2011).

Assays:
[1] = molecular target: T1, D(3) dopamine receptor (Homo sapiens, UniProt P35462); test: Antagonist activity at human dopamine D3 receptor expressed in CHOp cells assessed as inhibition of quinpirole-induced mitogenesis; assay type: functional, cell-based
[2] = species: Homo sapiens; test: Selectivity ratio Ki for human dopamine D2L receptor to Ki for human dopamine D3 receptor
[3] = molecular target: D(2) dopamine receptor (Homo sapiens, UniProt P14416); test: Displacement of [125I]-IABN from human dopamine D2L receptor expressed in HEK293 cells after 60 mins by gamma counting; assay type: cell-based
[4] = molecular target: T2, 5-hydroxytryptamine receptor 1A (Homo sapiens, UniProt P08908); test: Displacement of [3H]8-OH-DPAT from 5HT1A receptor
T2 sequence (P08908 whole entry): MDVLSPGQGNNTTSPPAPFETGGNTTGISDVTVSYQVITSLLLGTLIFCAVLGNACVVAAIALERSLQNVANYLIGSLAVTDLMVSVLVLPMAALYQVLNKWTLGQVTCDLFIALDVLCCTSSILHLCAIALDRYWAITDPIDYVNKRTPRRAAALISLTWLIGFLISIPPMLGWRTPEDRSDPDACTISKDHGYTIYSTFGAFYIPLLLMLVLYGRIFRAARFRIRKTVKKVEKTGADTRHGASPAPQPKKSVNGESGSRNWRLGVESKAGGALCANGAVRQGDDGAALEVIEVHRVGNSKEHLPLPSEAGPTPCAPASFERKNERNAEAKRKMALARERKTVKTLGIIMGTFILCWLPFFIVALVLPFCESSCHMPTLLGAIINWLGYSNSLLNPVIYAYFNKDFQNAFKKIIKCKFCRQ

[5] = molecular target: 5-hydroxytryptamine receptor 2A (Homo sapiens, UniProt P28223)
[6] = molecular target: T3, 5-hydroxytryptamine receptor 1A (Homo sapiens) (UniProt P08908); test: Agonist activity at 5HT1A receptor assessed as stimulation of [35S]GTPgammaS binding relative to control; assay type: functional; parameters: concentration or dose not given beside the values
T3 sequence (whole entry): T2 sequence (P08908 whole entry)

[7] = molecular target: T1, D(3) dopamine receptor; test: Displacement of [125I]-IABN from human dopamine D3 receptor expressed in HEK293 cells after 60 mins by gamma counting; assay type: cell-based
[8] = molecular target: T2, 5-hydroxytryptamine receptor 1A; test: Agonist activity at 5HT1A receptor assessed as stimulation of [35S]GTPgammaS binding; assay type: functional
[9] = molecular target: T1, D(3) dopamine receptor; test: Antagonist activity at human dopamine D3 receptor expressed in CHO-K1 cells assessed as inhibition of dopamine-induced recruitment of beta-arrestin-2 after 90 mins by beta-galactosidase assay; assay type: functional, cell-based
[10] = molecular target: T1, D(3) dopamine receptor; test: Antagonist activity at human dopamine D3 receptor expressed in CHO-K1 cells assessed as inhibition of dopamine-induced recruitment of beta-arrestin-2 at 10 uM after 90 mins by beta-galactosidase assay; assay type: functional, cell-based
[11] = molecular target: T3, 5-hydroxytryptamine receptor 1A (Homo sapiens); test: Displacement of [3H]8-OH-DPAT from 5HT1A receptor at 10 uM
[12] = molecular target: T4, D(4) dopamine receptor (Homo sapiens, UniProt P21917); test: Displacement of [125I]-IABN from human dopamine D4 receptor expressed in HEK293 cells after 60 mins by gamma counting; assay type: cell-based
T4 sequence (P21917 whole entry): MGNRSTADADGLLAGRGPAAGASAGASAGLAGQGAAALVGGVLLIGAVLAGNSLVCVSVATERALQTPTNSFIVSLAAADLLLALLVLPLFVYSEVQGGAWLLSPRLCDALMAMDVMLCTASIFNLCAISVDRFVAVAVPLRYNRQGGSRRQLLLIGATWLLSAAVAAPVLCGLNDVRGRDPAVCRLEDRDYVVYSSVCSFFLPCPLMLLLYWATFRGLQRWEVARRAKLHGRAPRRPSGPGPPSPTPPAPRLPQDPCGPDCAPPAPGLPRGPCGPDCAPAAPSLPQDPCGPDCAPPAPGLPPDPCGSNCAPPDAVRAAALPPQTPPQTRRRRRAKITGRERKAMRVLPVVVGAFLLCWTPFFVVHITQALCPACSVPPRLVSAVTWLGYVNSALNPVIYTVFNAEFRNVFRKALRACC

[13] = Binding affinity to human dopamine D2/E2 loop of D3 receptor expressed in HEK293 cells; assay type: cell-based
[14] = Binding affinity to human dopamine D2/D3 receptor chimera C expressed in HEK293 cells; assay type: cell-based
[15] = Binding affinity to human dopamine D2/D3 receptor chimera B expressed in HEK293 cells; assay type: cell-based

Chain of D(2) dopamine receptor (P14416 whole entry): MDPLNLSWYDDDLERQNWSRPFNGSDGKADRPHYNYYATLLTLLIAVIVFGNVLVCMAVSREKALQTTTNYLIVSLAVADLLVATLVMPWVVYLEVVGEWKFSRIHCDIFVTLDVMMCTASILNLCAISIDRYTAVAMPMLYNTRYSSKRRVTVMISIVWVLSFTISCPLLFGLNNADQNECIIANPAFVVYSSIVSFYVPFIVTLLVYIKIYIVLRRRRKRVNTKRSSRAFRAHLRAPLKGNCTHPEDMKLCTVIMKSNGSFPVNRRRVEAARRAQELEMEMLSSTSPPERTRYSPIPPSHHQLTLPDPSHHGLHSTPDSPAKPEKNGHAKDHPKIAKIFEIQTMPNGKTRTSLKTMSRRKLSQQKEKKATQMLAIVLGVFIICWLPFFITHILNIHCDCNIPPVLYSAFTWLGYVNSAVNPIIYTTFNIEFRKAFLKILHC
Chain of 5-hydroxytryptamine receptor 2A (P28223 whole entry): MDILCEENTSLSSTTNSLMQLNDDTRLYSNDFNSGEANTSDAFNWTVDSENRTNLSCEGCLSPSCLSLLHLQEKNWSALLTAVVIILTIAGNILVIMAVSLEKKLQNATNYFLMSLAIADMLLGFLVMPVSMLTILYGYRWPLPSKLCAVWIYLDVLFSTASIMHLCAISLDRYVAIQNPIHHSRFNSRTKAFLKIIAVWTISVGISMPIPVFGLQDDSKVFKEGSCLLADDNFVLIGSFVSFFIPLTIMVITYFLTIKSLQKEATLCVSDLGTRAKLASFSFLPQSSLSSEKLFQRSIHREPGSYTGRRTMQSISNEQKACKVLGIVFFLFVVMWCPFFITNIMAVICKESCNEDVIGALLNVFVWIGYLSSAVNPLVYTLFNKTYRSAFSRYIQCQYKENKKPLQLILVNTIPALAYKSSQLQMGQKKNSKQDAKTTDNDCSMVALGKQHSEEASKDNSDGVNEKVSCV
T1 sequence (P35462 whole entry): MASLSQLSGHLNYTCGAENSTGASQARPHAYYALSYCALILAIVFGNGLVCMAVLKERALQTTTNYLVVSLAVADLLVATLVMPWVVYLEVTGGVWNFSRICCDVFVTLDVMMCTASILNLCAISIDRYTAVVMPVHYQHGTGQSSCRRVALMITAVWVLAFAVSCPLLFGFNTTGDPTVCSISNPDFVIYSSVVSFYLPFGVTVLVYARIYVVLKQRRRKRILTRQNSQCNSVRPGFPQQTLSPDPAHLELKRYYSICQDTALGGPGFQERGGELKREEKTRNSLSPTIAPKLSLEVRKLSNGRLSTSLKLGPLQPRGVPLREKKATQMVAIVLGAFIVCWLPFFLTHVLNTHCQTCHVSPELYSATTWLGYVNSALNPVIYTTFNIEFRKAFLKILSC

SMILES | IC50 [1] | Ratio Ki [2] | Ki [3] | Ki [4] | Ki [5] | Activity [6] | Ki [7] | EC50 [8] | IC50 [9] | inhibition [10] | inhibition [11] | Ki [12] | Kd [13] | Kd [14] | Kd [15]
COc1ccccc1N1CCN(CC(F)CCNC(=O)c2ccc(-c3ccccn3)cc2)CC1 (configuration not stated) | 390 nM | 19 | 390 nM | 49 nM | 2.06 µM | 73% | 20.5 nM | 71.6 nM | 699 nM |  |  |  |  |  | 
COc1ccc2oc(C(=O)NCCC(F)CN3CCN(c4ccccc4OC)CC3)cc2c1 (configuration not stated) | 780 nM | 20 | 274 nM | 73 nM | 3 µM | 76% | 13.9 nM | 600 nM | 1240 nM |  |  |  |  |  | 
COc1ccc2[nH]c(C(=O)NCCC(F)CN3CCN(c4cccc(Cl)c4Cl)CC3)cc2c1 (configuration not stated) | 320 nM | 153 | 230 nM |  | 0.272 µM |  | 1.5 nM |  |  | < 50% | < 50% |  |  |  | 
O=C(NC/C=C/CN1CCN(c2cccc(Cl)c2Cl)CC1)c1ccc(-c2ccccn2)cc1 |  | 133 |  |  |  |  |  |  |  |  |  |  |  |  | 
CCCN(CCCCN1CCN(c2ccccc2OC)CC1)Cc1ccc2c(c1)Cc1ccccc1-2 |  | 3 | 196 nM |  |  |  | 71.5 nM |  |  |  |  |  |  |  | 
COc1ccc2[nH]c(C(=O)NCCC(F)CN3CCN(c4ccccc4OC)CC3)cc2c1 (configuration not stated) | 1140 nM | 66 | 302 nM | 1170 nM | 3.54 µM |  | 4.6 nM |  | 2990 nM |  |  |  |  |  | 
O=C(NCCC(F)CN1CCN(c2cccc(Cl)c2Cl)CC1)c1ccc(-c2ccccn2)cc1 (configuration not stated) | 256 nM |  | 378 nM | 159 nM | 0.098 µM |  | 6.2 nM | 1080 nM |  |  |  | 3.09 µM |  |  | 
CCCN(CCCCN1CCN(c2cccc(Cl)c2Cl)CC1)Cc1ccc2ccccc2c1 |  | 3 | 313 nM |  |  |  | 104 nM |  |  |  |  |  |  |  | 
COc1ccccc1N1CCN(CC(F)CCNC(=O)c2cc3ccccc3o2)CC1 (configuration not stated) | 440 nM | 11 | 329 nM | 37.9 nM | 4.8 µM | 60% | 28.6 nM | 134 nM |  |  |  |  |  |  | 
O=C(NCCC(F)CN1CCN(c2cccc(Cl)c2Cl)CC1)c1ccc2c(c1)Cc1ccccc1-2 (configuration not stated) | 800 nM | 1640 | 4260 nM | 6000 nM | 4.8 µM |  | 2.6 nM |  |  | < 50% |  |  |  |  | 
CCCN(CCCCN1CCN(c2ccccc2OC)CC1)Cc1ccc2ccccc2c1 |  | 1.5 | 119 nM |  |  |  | 80.8 nM |  |  |  |  |  |  |  | 
O=C(NCCC(F)CN1CCN(c2cccc(Cl)c2Cl)CC1)c1ccc2ccccc2c1 (configuration not stated) | 255 nM | 32 | 195 nM |  | 1.91 µM |  | 6.1 nM |  |  | < 50% | < 50% |  |  |  | 
CN(CCC(F)CN1CCN(c2cccc(Cl)c2Cl)CC1)Cc1ccc2c(c1)Cc1ccccc1-2 (configuration not stated) | 918 nM | 5 | 2060 nM |  | 2.58 µM |  | 393 nM |  |  |  | < 50% |  |  |  | 
O=C(NCCC(F)CN1CCN(c2cccc(Cl)c2Cl)CC1)c1cc2ccccc2o1 (configuration not stated) |  |  |  |  |  |  |  |  |  |  |  |  | 0.08 nM | 0.02 nM | 0.02 nM
FC(CCNCc1ccc2c(c1)Cc1ccccc1-2)CN1CCN(c2cccc(Cl)c2Cl)CC1 (configuration not stated) |  | 11 | 5270 nM |  |  |  | 467 nM |  |  |  |  |  |  |  | 
OC(CCNCc1ccc2c(c1)Cc1ccccc1-2)CN1CCN(c2cccc(Cl)c2Cl)CC1 (configuration not stated) |  | 16 | 2090 nM |  |  |  | 134 nM |  |  |  |  |  |  |  | 
COc1ccccc1N1CCN(CC(F)CCNC(=O)c2cc3ccccc3[nH]2)CC1 (configuration not stated) | 820 nM | 44 | 421 nM | 101 nM | 3.24 µM | 83% | 9.5 nM | 1430 nM |  | < 50% |  | 1.49 µM |  |  | 
O=C(NCCC(F)CN1CCN(c2cccc(Cl)c2Cl)CC1)c1cc2ccccc2s1 (configuration not stated) | 17 nM | 163 | 472 nM | 2140 nM | 3.29 µM |  | 2.9 nM |  | 3770 nM |  |  |  |  |  | 
O=C(NCCC(F)CN1CCN(c2cccc(Cl)c2Cl)CC1)c1cc2ccccc2[nH]1 (configuration not stated) |  | 131 | 526 nM | 223 nM | 0.212 µM | 88% | 4 nM | 2140 nM | 1220 nM |  |  | 3.36 µM |  |  | 
CN(CCC(O)CN1CCN(c2cccc(Cl)c2Cl)CC1)Cc1ccc2c(c1)Cc1ccccc1-2 (configuration not stated) |  | 5 | 869 nM |  |  |  | 162 nM |  |  |  |  |  |  |  | 
CCCN(CCCCN1CCN(c2cccc(Cl)c2Cl)CC1)Cc1ccc2c(c1)Cc1ccccc1-2 |  | 2 | 269 nM |  |  |  | 129 nM |  |  |  |  |  |  |  | 
COc1ccc2oc(C(=O)NCCC(F)CN3CCN(c4cccc(Cl)c4Cl)CC3)cc2c1 (configuration not stated) | 1430 nM | 35 | 279 nM | 501 nM | 0.274 µM |  | 8 nM |  |  | < 50% |  |  |  |  | 
CCCN(CCCCN1CCN(c2ccccc2OC)CC1)Cc1cc2ccccc2s1 |  | 1 | 69.9 nM |  |  |  | 67.9 nM |  |  |  |  |  |  |  | 
COc1ccccc1N1CCN(CC(F)CCNC(=O)c2ccc3c(c2)Cc2ccccc2-3)CC1 (configuration not stated) | 214 nM | 286 | 2890 nM | 299 nM | > 10 µM |  | 10.1 nM |  |  | < 50% |  | 3.18 µM |  |  | 
COc1ccccc1N1CCN(CC(F)CCNC(=O)c2cc3ccccc3s2)CC1 (configuration not stated) | 83 nM | 63 | 241 nM | 139 nM | 3.03 µM | 57% | 3.8 nM | 440 nM | 3210 nM |  |  |  |  |  | 
CCCN(CCCCN1CCN(c2cccc(Cl)c2Cl)CC1)Cc1cc2ccccc2s1 |  | 2 | 162 nM |  |  |  |  |  |  |  |  |  |  |  | 
